molecular target: T1, Rhesus PDE2A3 (Macaca mulatta, UniProt B3VTJ2); experiment: PDE2 fluorescence polarization (IMAP FP) inhibition assay, rhesus enzyme; assay type: biochemical, rhesus macaque; conditions: Lab A; read-out: Rhesus PDE2 Ki (nM) Lab A
T1 construct: made in house; host or cells: AD293 cells, transient transfection, pcDNA3.3-TOPO; lysate supernatant used as enzyme
T1 sequence (B3VTJ2 1-941): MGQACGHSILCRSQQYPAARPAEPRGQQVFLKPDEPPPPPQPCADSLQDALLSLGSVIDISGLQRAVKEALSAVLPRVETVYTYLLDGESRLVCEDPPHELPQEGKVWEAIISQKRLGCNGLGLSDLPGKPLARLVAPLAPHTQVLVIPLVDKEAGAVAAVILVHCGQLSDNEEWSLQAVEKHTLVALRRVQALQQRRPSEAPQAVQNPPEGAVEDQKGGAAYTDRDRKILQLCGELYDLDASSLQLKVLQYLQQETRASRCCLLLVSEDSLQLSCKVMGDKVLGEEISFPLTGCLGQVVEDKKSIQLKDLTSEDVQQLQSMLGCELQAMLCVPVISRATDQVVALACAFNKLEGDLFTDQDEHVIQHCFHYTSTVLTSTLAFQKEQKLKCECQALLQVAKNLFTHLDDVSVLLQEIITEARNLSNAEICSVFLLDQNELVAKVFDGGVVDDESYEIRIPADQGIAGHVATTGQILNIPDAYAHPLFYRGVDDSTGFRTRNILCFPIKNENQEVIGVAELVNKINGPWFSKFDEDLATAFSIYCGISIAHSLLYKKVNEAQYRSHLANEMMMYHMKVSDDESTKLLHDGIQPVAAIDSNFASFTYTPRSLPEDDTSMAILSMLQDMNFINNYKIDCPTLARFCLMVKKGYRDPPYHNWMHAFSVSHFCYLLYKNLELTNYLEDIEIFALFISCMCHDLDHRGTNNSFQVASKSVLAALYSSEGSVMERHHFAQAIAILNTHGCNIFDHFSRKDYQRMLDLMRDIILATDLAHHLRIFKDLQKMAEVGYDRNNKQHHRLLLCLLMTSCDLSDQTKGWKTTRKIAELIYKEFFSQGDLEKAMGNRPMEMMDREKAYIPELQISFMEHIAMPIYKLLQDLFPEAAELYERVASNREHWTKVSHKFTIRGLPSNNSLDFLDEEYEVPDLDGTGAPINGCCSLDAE
Procedure: The activity of the compounds in accordance with the present invention as PDE2 inhibitors may be readily determined using a fluorescence polarization (FP) methodology (Huang, W., et al., J. Biomol Screen, 2002, 7: 215).
In a typical experiment the PDE2 inhibitory activity of the compounds of the present invention was determined in accordance with the following experimental method. Rhesus PDE2A3 was amplified from rhesus macaque brain cDNA (Biochain Institute, Hayward, Calif.) using primers based on human PDE2A sequence (accession NM_002599.3) where the forward primer containing a Kozak consensus was 5′-[…]-3′ and the reverse primer was 5′-[…]-3′. Amplification with Easy-A High-Fidelity PCR cloning enzyme (Stratagene, La Jolla, Calif.) was 95° C. for 2 minutes followed by thirty three cycles of 95° C. for 40 seconds, 52° C. for 30 seconds, and 72° C. for 2 minutes 48 seconds. Final extension was 72° C. for 7 minutes. The PCR product was TA cloned into pcDNA3.3-TOPO (Invitrogen, Carlsbad, Calif.) according to standard protocol. A consensus sequence was developed from multiple clones and then deposited into GenBank (EU812167). AD293 cells (Stratagene, La Jolla, Calif.) with 70-80% confluency were transiently transfected with rhesus PDE2A3/pcDNA3.3-TOPO using Lipofectamine 2000 according to manufacturer specifications (Invitrogen, Carlsbad, Calif.). Cells were harvested 48 hours post-transfection and lysed by sonication (setting 3, 10×5 sec pulses) in a buffer containing 20 mM HEPES pH 7.4, 1 mM EDTA and Complete Protease Inhibitor Cocktail Tablets (Roche, Indianapolis, Ind.). Lysate was collected by centrifugation at 75,000×g for 20 minutes at 4° C. and supernatant utilized for evaluation of PDE2 activity. The fluorescence polarization assay for cyclic nucleotide phosphodiesterases was performed using an IMAP® FP kit supplied by Molecular Devices, Sunnyvale, Calif. (product # R8139). […] Assays were performed at room temperature in 384-well microtiter plates with an incubation volume of 20.2 μL. Solutions of test compounds were prepared in DMSO and serially diluted with DMSO to yield 8 μL of each of 10 solutions differing by 3-fold in concentration, at 32 serial dilutions per plate. […] 0% of inhibition is determined by using DMSO (1% final concentrations).
A Labcyte Echo 555 (Labcyte, Sunnyvale, Calif.) is used to dispense 200 nL from each well of the titration plate to the 384 well assay plate. Ten microliters of a solution of enzyme (1/2000 final dilution from aliquots; sufficient to produce 20% substrate conversion) was added to the assay plate. Next 10 uL of a separate solution of the substrate FAM-labeled cAMP (50 nM final concentration product # R7506 from Molecular Devices) and the activator cGMP (1 uM final concentration), prepared in the assay buffer (10 mM Tris HCl, pH 7.2, 10 mM MgCl2, 0.05% NaN3 0.01% Tween-20, and 1 mM DTT) was added to the assay plate and shaken to mix. The reaction is allowed to proceed at room temperature for 60 minutes. A binding solution is then made from the kit components, comprised of 80% Solution A, 20% Solution B and binding reagent at a volume of 1/600 the total binding solution. The enzymatic reaction is stopped by addition of 60 μl, of the binding solution to each well of the assay plates and the plates are sealed and shaken for 30 seconds. The plate was incubated at room temperature for at least one hour prior to determining the fluorescence polarization (FP). The parallel and perpendicular fluorescence of each well of the plate was measured using a Tecan Genios Pro plate reader (Tecan, Switzerland) or Perkin Elmer EnVision™ plate reader (Waltham, Mass.). Fluorescence polarization (mP) was calculated from the parallel (S) and perpendicular (P) fluorescence of each sample well and the analogous values for the median control well, containing only substrate (So and Po), using the following equation: Polarization (mP)=1000*(S/So−P/Po)/(S/So+P/Po).

Ki	Compound
30100 nM	Cc1nc(-c2cnn(C(C)C3CCOCC3)c2)cc(=O)[nH]1 (stereo not drawn) [Example 68, 2-methyl-6-(1-(1-(tetrahydro-2H-pyran-4-yl)ethyl)-1H-pyrazol-4-yl)pyrimidin-4(3H)-one]

same assay, conditions: Lab B; read-out: Rhesus PDE2 Ki (nM) Lab B

Compound	Ki
Cc1nc(-n2cc(C(C)c3ccncc3)cn2)cc(=O)[nH]1 (stereo not drawn) [Example 54, 2-methyl-6-[4-(1-pyridin-4-ylethyl)-1H-pyrazol-1-yl]pyrimidin-4(3H)-one]	18200 nM
Cc1nc(-n2cc(C(C)c3ccc(OC(F)(F)F)cc3C)cn2)cc(=O)[nH]1 (stereo not drawn) [Example 55, 2-methyl-6-(4-(1-(2-methyl-4-(trifluoromethoxy)phenyl)ethyl)-1H-pyrazol-1-yl)pyrimidin-4(3H)-one]	467 nM
Cc1nc(-c2cnn(C(C)C3CCOCC3)c2)cc(=O)[nH]1 (stereo not drawn) [Example 68, 2-methyl-6-(1-(1-(tetrahydro-2H-pyran-4-yl)ethyl)-1H-pyrazol-4-yl)pyrimidin-4(3H)-one]	40100 nM
Cc1nc(-c2cnn(C(C)c3cccc(C(F)(F)F)c3)c2)cc(=O)[nH]1 (stereo not drawn) [Example 73, 2-methyl-6-(1-(1-(3-(trifluoromethyl)phenyl)ethyl)-1H-pyrazol-4-yl)pyrimidin-4(3H)-one]	6380 nM
Cc1nc(-c2ccnn2C(C)c2ccc(C(F)(F)F)cc2)cc(=O)[nH]1 (stereo not drawn) [Example 74, 2-methyl-6-(1-(1-(4-(trifluoromethyl)phenyl)ethyl)-1H-pyrazol-5-yl)pyrimidin-4(3H)-one]	11000 nM
Cc1nc(-c2ccn(C(C)c3ccc(OC(F)(F)F)cc3)n2)cc(=O)[nH]1 (stereo not drawn) [Example 75, 2-methyl-6-(1-(1-(4-(trifluoromethoxy)phenyl)ethyl)-1H-pyrazol-3-yl)pyrimidin-4(3H)-one]	3250 nM
Cc1nc(-c2ccnn2C(C)c2ccc(OC(F)(F)F)cc2)cc(=O)[nH]1 (stereo not drawn) [Example 76, 2-methyl-6-(1-(1-(4-(trifluoromethoxy)phenyl)ethyl)-1H-pyrazol-5-yl)pyrimidin-4(3H)-one]	15900 nM
Cc1nc(-c2c(C)nn(C(C)c3ccc(C(F)(F)F)cc3)c2C)cc(=O)[nH]1 (stereo not drawn) [Example 79, 6-(3,5-dimethyl-1-(1-(4-(trifluoromethyl)phenyl)ethyl)-1H-pyrazol-4-yl)-2-methylpyrimidin-4(3H)-one]	727 nM
Cc1nc(-c2cnn(C(C)c3ccc(F)cc3)c2)cc(=O)[nH]1 (stereo not drawn) [Example 152, 6-(1-(1-(4-fluorophenyl)ethyl)-1H-pyrazol-4-yl)-2-methylpyrimidin-4(3H)-one]	4130 nM
COC(=O)c1ccc(C(C)n2cc(-c3cc(=O)[nH]c(C)n3)cn2)cc1 (stereo not drawn) [Example 155, methyl 4-(1-(4-(2-methyl-6-oxo-1,6-dihydropyrimidin-4-yl)-1H-pyrazol-1-yl)ethyl)benzoate]	3830 nM
Cc1nc(-c2cnn(C(C)c3ccccc3)c2)cc(=O)[nH]1 (stereo not drawn) [Example 156, 2-methyl-6-(1-(1-phenylethyl)-1H-pyrazol-4-yl)pyrimidin-4(3H)-one]	4890 nM
Cc1ccc(C(C)n2ccc(-c3cc(=O)[nH]c(C)n3)n2)cc1 (stereo not drawn) [Example 157, 2-methyl-6-(1-(1-(p-tolyl)ethyl)-1H-pyrazol-3-yl)pyrimidin-4(3H)-one]	48700 nM

More lines, now with the values ahead:

Ki	Compound
18500 nM	Cc1nc(-c2ccn(C(C)c3ccccc3)n2)cc(=O)[nH]1 (stereo not drawn) [Example 158, 2-methyl-6-(1-(1-phenylethyl)-1H-pyrazol-3-yl)pyrimidin-4(3H)-one]
25700 nM	Cc1nc(-c2ccn(C(C)c3cccc(C(F)(F)F)c3)n2)cc(=O)[nH]1 (stereo not drawn) [Example 159, 2-methyl-6-(1-(1-(3-(trifluoromethyl)phenyl)ethyl)-1H-pyrazol-3-yl)pyrimidin-4(3H)-one]
2300 nM	CCCC(c1ccc(C(F)(F)F)cc1)n1ccc(-c2cc(=O)[nH]c(C)n2)n1 (stereo not drawn) [Example 160, 2-methyl-6-(1-(1-(4-(trifluoromethyl)phenyl)butyl)-1H-pyrazol-3-yl)pyrimidin-4(3H)-one]
13900 nM	Cc1nc(-c2ccn(C(C)c3ccc(F)cc3)n2)cc(=O)[nH]1 (stereo not drawn) [Example 161, 6-(1-(1-(4-fluorophenyl)ethyl)-1H-pyrazol-3-yl)-2-methylpyrimidin-4(3H)-one]
29800 nM	COC(=O)c1ccc(C(C)n2ccc(-c3cc(=O)[nH]c(C)n3)n2)cc1 (stereo not drawn) [Example 162, methyl 4-(1-(3-(2-methyl-6-oxo-1,6-dihydropyrimidin-4-yl)-1H-pyrazol-1-yl)ethyl)benzoate]

Reference: patent publication US10287269B2, “Pyrazolyl pyrimidinone compounds as PDE2 inhibitors” (Merck Sharp & Dohme Corp., priority 2015, dated 2019)
